Data published in patent publication US6685935B1 (priority 1995, dated 2004).
Like-named read-outs stand apart in the source and are kept apart here.

Tests used:
C57B6 mice = settings: mouse, in vivo, ip
B16F10 melanoma cells = assay type: cell-based, mouse
Method: FIG. 11-F is a graph showing the growth of B16F10 melanoma cells in monolayer culture in the presence or absence of ganciclovir at 10 μg/ml or 25 μg/ml.

[1] = tested on: Cloudman S91 melanoma/macrophage hybrid #48 tumors in DBA/2J mice
[2] = tested on: B16F10 melanoma in C57B6 mice; assay type: in vivo, mouse
Method: C57B6 mice were inoculated s.c., left shoulder region, with […] B16F10 melanoma cells from culture. […] At 18 days post-tumor implantation (10 days post bacterial inoculation) all animals were given enrofloxacin antibiotic, 0.2 mg/ml, in their drinking water (BAYTRIL™) and maintained with this antibiotic supplement for 2 weeks. Tumor growth was assessed by caliper measurements and computed as volume in mm^3. Animals were euthanized and listed as dead when the sum of their tumor measurements, length+width+height, reached 60 mm, or when they became moribund (listless, cessation of drinking).
C57B6 female mice, 5-7 weeks old, were inoculated s.c. in the left shoulder region with 5×10^5 B16F10 melanoma cells grown in culture. […] Tumor growth was assessed with periodic caliper measurements of tumor length, width and height, and computed as tumor volume in mm^3. Results of tumor growth, shown in FIGS. 16A-D represent the averages±SD for 5 animals/group with 5/5 animals surviving. After the point at which one or more animals died within a group, the average tumor sizes of the surviving animals were no longer shown when the data were plotted as shown in FIGS. 16A-D.
The animals were allowed to eat and drink ad libitum. Twenty-three days (Experiment #1) or 10 days (Experiment #2) following inoculation of bacteria, both control and bacteria treated mice were given Baytril™ (enrofloxacin, 0.2 mg/ml drinking water) and maintained on this antibiotic for a total of 2 weeks. In Experiment #1 the times at which the mice became moribund (listless, cessation of drinking) or died, were noted. The results are presented in Table 20(F) as the average survival±SD for the conditions tested. In Experiment #2 animals were sacrificed when the tumor reached 4 g and listed with the other dead as described in Experiment #1. The two different methods for assessing survival accounted for a somewhat shorter survival time for control animals in Experiment #2 (26 days) as compared to Experiment #1 (28 days).

Row | SMILES | Avg. time of Death ± S.D. (C57B6 mice) [days] | proliferation of B16F10 melanoma cells in culture (B16F10 melanoma cells; GCV 10 μg/ml) | proliferation of B16F10 melanoma cells in culture (B16F10 melanoma cells; GCV 25 μg/ml) | side-effects of ganciclovir treatment ([1]; 2.5 mg i.p. four times over 3 days, no bacteria) | Mean Tumor Doubling Time ([1]; 3×10^5 c.f.u. bacteria i.p., ganciclovir 2.0 mg, 6 inoculations over 5 days) [h] | Time Days ± S.D. ([2]; GCV 3.75 mg, no bacteria) [days] | Treated/Control T/C ([2]; GCV 3.75 mg, no bacteria) | effect on tumor volume ([2]; GCV 3.75 mg-10 mg/mouse days 11-12, no bacteria)
1 | CCN1CCN(c2cc3c(cc2F)c(=O)c(C(=O)O)cn3C2CC2)CC1 [enrofloxacin, 1-cyclopropyl-7-(4-ethyl-1-piperazinyl)-6-fluoro-1,4-dihydro-4-oxo-3-quinolinecarboxylic acid] | >21 | – | – | – | – | – | – | –
2 | Nc1nc(O)c2ncn(COC(CO)CO)c2n1 [ganciclovir, ganciclovir sodium] | – | not | significantly suppressed | little or no side-effects | 94 | 27 ± 1 | 1.1 | small reduction in tumor volume
